Assays:
[1] = Radiochemical purity of ^177Lu-PSMA I&T by HPLC in different formulation compositions, hours post EOS (Example 3); type: physicochemical
Method: Product formulation details are described in Table 6.
Radiochemical purity of each solution was followed by HPLC up to 71-93 hours post-radiolabeling.

[2] = Cycle 3 dosimetry (TACs of cycle 1 scaled to cycle 3 time points); type: in vivo, human; conditions: for Absorbed Dose in Cycle 3, Mean / Absorbed Dose in Cycle 3, max / Absorbed Dose in Cycle 3, min: N = 16
Method: (§1) To evaluate potential changes in the tracer's kinetics and uptake after multiple treatment cycles, 16 of the 27 patients included in the dosimetry sub study, were imaged at both cycle 1 and cycle 3. Among these, at cycle 3, three patients were imaged at all 4 timepoints and the other 13 were imaged at one or two timepoints only (24 h, 48 h or both 24 h and 48 h) (Table 2). For these 13 patients, the TACs obtained at cycle 1 were used for each source organ and scaled to the normalized activity value(s) measured at Cycle 3. For patients imaged at two timepoints, the TACs were preferably scaled using the average scaling factor between the two timepoints.
A subgroup of 16 out of the 27 patients underwent and additional dosimetry assessment at Cycle 3. Among these, three patients had dosimetry performed based on images taken at 4 timepoints, while the remaining patients had dosimetry performed at 1 or 2 imaging timepoints only.
as §1, with “7 in Appendix 1).” for “2).”

[3] = Lacrimal Glands (OLINDA sphere model)
[4] = Lacrimal Glands, OLINDA sphere model

O=C([O-])CC[C@H](NC(=O)N[C@@H](CCCCNC(=O)CCCCCCC(=O)NCCCC[C@@H](NC(=O)[C@@H](Cc1ccccc1)NC(=O)[C@@H](Cc1ccc(O)c(I)c1)NC(=O)CC[C@H](C(=O)[O-])N1CCN(CC(=O)[O-])CCN(CC(=O)[O-])CCN(CC(=O)[O-])CC1)C(=O)[O-])C(=O)[O-])C(=O)[O-].[177Lu+3].[H+].[H+].[H+].[H+].[H+] [^177Lu-PSMA I&T, (3S,7S,26R,29R,32R,37R)-29-benzyl-32-(4-hydroxy-3-iodobenzyl)-5,13,20,28,31,34-hexaoxo-37-(4,7,10-tris(carboxymethyl)-1,4,7,10-tetraazacyclododecan-1-yl)-4,6,12,21,27,30,33-heptaazaheptatriacontane-1,3,7,26,37-pentacarboxylic acid; lutetium-177 (III)]
radiochemical purity as measured by HPLC ([1]; 10 ml high RAC formulation, 42.5 mg/ml ascorbic acid, 0 hours post EOS): at least 99% | radiochemical purity as measured by HPLC ([1]; 10 ml high RAC formulation, 42.5 mg/ml ascorbic acid, 46 hours post EOS): at least 93.3% | radiochemical purity as measured by HPLC ([1]; 20 ml low RAC formulation, 31 mg/ml ascorbic acid, 0 hours post EOS): at least 99.1% | adequate radiochemical stability (radiochemical purity at least 95%) ([1]; about 31 mg/ml ascorbic acid, pH about 4.5, radioactivity concentration about 640 MBq/ml or below): four | decrease in radiochemical purity over time at pH 4.5 compared with pH 7 ([1]; high RAC solutions): two times slower | radiochemical purity ([1]; high radioactivity concentration, pH 4.5, 42.5 mg/ml ascorbic acid, 24 hours post EOS): 98.0% | radiochemical purity ([1]; high radioactivity concentration, pH 4.5, 42.5 mg/ml ascorbic acid, 46 hours post EOS): 96.7% | radiochemical purity ([1]; high radioactivity concentration, pH 4.5, 42.5 mg/ml ascorbic acid, 67 hours post EOS): 95.3% | radiochemical purity ([1]; high radioactivity concentration, pH 4.5, 42.5 mg/ml ascorbic acid, 71 hours post EOS): 95.2% | radiochemical stability (radiochemical purity) ([1]; low RAC solution, pH 4.5, ascorbic acid 31 mg/ml, for 72 hours or longer): above 95.0% | radiochemical purity ([1]; low radioactivity concentration 579 MBq/ml, pH 4.5, 21 mg/ml ascorbic acid, 92 hours post EOS): 96.0% | radiochemical purity ([1]; low radioactivity concentration 588.5 MBq/ml, pH 4.5, 31 mg/ml ascorbic acid, 20 hours post EOS): 98.7% | radiochemical purity ([1]; low radioactivity concentration 588.5 MBq/ml, pH 4.5, 31 mg/ml ascorbic acid, 44 hours post EOS): 98.0% | radiochemical purity ([1]; low radioactivity concentration 588.5 MBq/ml, pH 4.5, 31 mg/ml ascorbic acid, 69 hours post EOS): 97.4% | radiochemical purity ([1]; low radioactivity concentration 588.5 MBq/ml, pH 4.5, 31 mg/ml ascorbic acid, 93 hours post EOS): 97.0% | radiochemical purity ([1]; low radioactivity concentration 626 MBq/ml, pH 5.0, 31 mg/ml ascorbic acid, 0 hours post EOS): 99.2% | radiochemical purity ([1]; low radioactivity concentration 626 MBq/ml, pH 5.0, 31 mg/ml ascorbic acid, 25 hours post EOS): 98.4% | radiochemical purity ([1]; low radioactivity concentration 626 MBq/ml, pH 5.0, 31 mg/ml ascorbic acid, 47 hours post EOS): 97.3% | radiochemical stability (radiochemical purity) ([1]; lowered formulation radioactivity concentration, for 72 hours, experiments conducted previously): above 95.0% | Absorbed Dose in Cycle 3, Mean ([2]; Adrenals): 0.02 Gy/GBq | Absorbed Dose in Cycle 3, max ([2]; Adrenals): 0.03 Gy/GBq | Absorbed Dose in Cycle 3, min ([2]; Adrenals): 0.01 Gy/GBq | Absorbed Dose in Cycle 3, Mean ([2]; Brain): 0.01 Gy/GBq | Absorbed Dose in Cycle 3, max ([2]; Brain): 0.02 Gy/GBq | Absorbed Dose in Cycle 3, min ([2]; Brain): 0.00 Gy/GBq | absorbed radiation dose, kidneys (mean ± SD) ([2]; Cycle 3, 16 patients imaged at cycle 1 and 3): 0.49±0.19 Gy/GBq | Absorbed Dose in Cycle 3, Mean ([2]; Esophagus): 0.01 Gy/GBq | Absorbed Dose in Cycle 3, max ([2]; Esophagus): 0.02 Gy/GBq | Absorbed Dose in Cycle 3, min ([2]; Esophagus): 0.00 Gy/GBq | Absorbed Dose in Cycle 3, Mean ([2]; Eyes): 0.01 Gy/GBq | Absorbed Dose in Cycle 3, max ([2]; Eyes): 0.02 Gy/GBq | Absorbed Dose in Cycle 3, min ([2]; Eyes): 0.00 Gy/GBq | Absorbed Dose in Cycle 3, Mean ([2]; Gallbladder wall): 0.01 Gy/GBq | Absorbed Dose in Cycle 3, max ([2]; Gallbladder wall): 0.02 Gy/GBq | Absorbed Dose in Cycle 3, min ([2]; Gallbladder wall): 0.00 Gy/GBq | Absorbed Dose in Cycle 3, Mean ([2]; Heart wall): 0.01 Gy/GBq | Absorbed Dose in Cycle 3, max ([2]; Heart wall): 0.02 Gy/GBq | Absorbed Dose in Cycle 3, min ([2]; Heart wall): 0.00 Gy/GBq | Absorbed Dose in Cycle 3, Mean ([2]; Kidneys): 0.49 Gy/GBq | Absorbed Dose in Cycle 3, max ([2]; Kidneys): 0.85 Gy/GBq | Absorbed Dose in Cycle 3, min ([2]; Kidneys): 0.19 Gy/GBq | Absorbed Dose in Cycle 3, Mean [2, 3]: 0.29 Gy/GBq | Absorbed Dose in Cycle 3, max [2, 3]: 0.73 Gy/GBq | Absorbed Dose in Cycle 3, min [2, 3]: 0.10 Gy/GBq | Absorbed Dose in Cycle 3, Mean [2, 4]: 0.29 Gy/GBq | Absorbed Dose in Cycle 3, max [2, 4]: 0.73 Gy/GBq | Absorbed Dose in Cycle 3, min [2, 4]: 0.10 Gy/GBq | Absorbed Dose in Cycle 3, Mean ([2]; Left colon): 0.41 Gy/GBq | Absorbed Dose in Cycle 3, max ([2]; Left colon): 0.94 Gy/GBq | Absorbed Dose in Cycle 3, min ([2]; Left colon): 0.07 Gy/GBq | Absorbed Dose in Cycle 3, Mean ([2]; Liver): 0.06 Gy/GBq | Absorbed Dose in Cycle 3, max ([2]; Liver): 0.15 Gy/GBq | Absorbed Dose in Cycle 3, min ([2]; Liver): 0.00 Gy/GBq | Absorbed Dose in Cycle 3, Mean ([2]; Lungs): 0.01 Gy/GBq | Absorbed Dose in Cycle 3, max ([2]; Lungs): 0.02 Gy/GBq | Absorbed Dose in Cycle 3, min ([2]; Lungs): 0.00 Gy/GBq | Absorbed Dose in Cycle 3, Mean ([2]; Osteogenic cells): 0.02 Gy/GBq | Absorbed Dose in Cycle 3, max ([2]; Osteogenic cells): 0.09 Gy/GBq | Absorbed Dose in Cycle 3, min ([2]; Osteogenic cells): 0.00 Gy/GBq | Absorbed Dose in Cycle 3, Mean ([2]; Pancreas): 0.01 Gy/GBq | Absorbed Dose in Cycle 3, max ([2]; Pancreas): 0.02 Gy/GBq | Absorbed Dose in Cycle 3, min ([2]; Pancreas): 0.00 Gy/GBq | Absorbed Dose in Cycle 3, Mean ([2]; Prostate): 0.01 Gy/GBq | Absorbed Dose in Cycle 3, max ([2]; Prostate): 0.02 Gy/GBq | Absorbed Dose in Cycle 3, min ([2]; Prostate): 0.01 Gy/GBq | Absorbed Dose in Cycle 3, Mean ([2]; Rectum): 0.39 Gy/GBq | Absorbed Dose in Cycle 3, max ([2]; Rectum): 0.90 Gy/GBq | Absorbed Dose in Cycle 3, min ([2]; Rectum): 0.06 Gy/GBq | Absorbed Dose in Cycle 3, Mean ([2]; Red Marrow): 0.03 Gy/GBq | Absorbed Dose in Cycle 3, max ([2]; Red Marrow): 0.17 Gy/GBq | Absorbed Dose in Cycle 3, min ([2]; Red Marrow): 0.00 Gy/GBq | Absorbed Dose in Cycle 3, Mean ([2]; Right Colon): 0.22 Gy/GBq | Absorbed Dose in Cycle 3, max ([2]; Right Colon): 0.51 Gy/GBq | Absorbed Dose in Cycle 3, min ([2]; Right Colon): 0.04 Gy/GBq | Absorbed Dose in Cycle 3, Mean ([2]; Salivary Glands): 0.20 Gy/GBq | Absorbed Dose in Cycle 3, max ([2]; Salivary Glands): 0.69 Gy/GBq | Absorbed Dose in Cycle 3, min ([2]; Salivary Glands): 0.04 Gy/GBq | Absorbed Dose in Cycle 3, Mean ([2]; Small intestine): 0.04 Gy/GBq | Absorbed Dose in Cycle 3, max ([2]; Small intestine): 0.10 Gy/GBq | Absorbed Dose in Cycle 3, min ([2]; Small intestine): 0.01 Gy/GBq | Absorbed Dose in Cycle 3, Mean ([2]; Spleen): 0.03 Gy/GBq | Absorbed Dose in Cycle 3, max ([2]; Spleen): 0.12 Gy/GBq | Absorbed Dose in Cycle 3, min ([2]; Spleen): 0.01 Gy/GBq | Absorbed Dose in Cycle 3, Mean ([2]; Stomach Wall): 0.01 Gy/GBq | Absorbed Dose in Cycle 3, max ([2]; Stomach Wall): 0.02 Gy/GBq | Absorbed Dose in Cycle 3, min ([2]; Stomach Wall): 0.00 Gy/GBq | Absorbed Dose in Cycle 3, Mean ([2]; Testes): 0.01 Gy/GBq | Absorbed Dose in Cycle 3, max ([2]; Testes): 0.02 Gy/GBq | Absorbed Dose in Cycle 3, min ([2]; Testes): 0.00 Gy/GBq | Absorbed Dose in Cycle 3, Mean ([2]; Thymus): 0.01 Gy/GBq | Absorbed Dose in Cycle 3, max ([2]; Thymus): 0.02 Gy/GBq | Absorbed Dose in Cycle 3, min ([2]; Thymus): 0.00 Gy/GBq | Absorbed Dose in Cycle 3, Mean ([2]; Thyroid): 0.01 Gy/GBq | Absorbed Dose in Cycle 3, max ([2]; Thyroid): 0.02 Gy/GBq | Absorbed Dose in Cycle 3, min ([2]; Thyroid): 0.00 Gy/GBq | Absorbed Dose in Cycle 3, Mean ([2]; Total Body): 0.02 Gy/GBq | Absorbed Dose in Cycle 3, max ([2]; Total Body): 0.03 Gy/GBq | Absorbed Dose in Cycle 3, min ([2]; Total Body): 0.01 Gy/GBq | Absorbed Dose in Cycle 3, Mean ([2]; Urinary Bladder wall): 0.45 Gy/GBq | Absorbed Dose in Cycle 3, max ([2]; Urinary Bladder wall): 0.70 Gy/GBq | Absorbed Dose in Cycle 3, min ([2]; Urinary Bladder wall): 0.36 Gy/GBq
